Literature values, collected in patent US20180228837A1, “STABLE IODINE SOLUTIONS WITH MEDICAL APPLICATIONS” (priority 2017, published 2018).
Read-outs that look alike come from different tables or passages of the source.

Key:
dermal wounds = dermal wounds of rabbits
[1] = tested on: wound chambers and full thickness wounds; settings: rats; injected in one area of the body, healing at distant areas
[2] = tested on: wound chambers and full thickness wounds; settings: mice; injected in one area of the body, healing at distant areas
[3] = tested on: wound chambers and full thickness wounds; settings: pigs; injected in one area of the body, healing at distant areas
wounds = settings: diabetic rats; collagen membrane material
ischemic open wounds = ischemic open wounds in rats; compared with vehicle alone or untreated wounds

copper complex of a glycyl-L-histidyl-L-lysine peptide [GHK-Cu]
wound healing (dermal wounds): facilitated wound healing
systemic enhancement of healing [1]: induce a systemic enhancement of healing
systemic enhancement of healing [2]: induce a systemic enhancement of healing
systemic enhancement of healing [3]: induce a systemic enhancement of healing
wound contraction and epithelization (wounds): faster wound contraction and epithelization
concentration of metalloproteinases 2 and 9 and of TNF-beta (ischemic open wounds): decreased
wound healing (ischemic open wounds): healed faster
